# Source: patent publication US11773085B2 (Foghorn Therapeutics Inc., priority 2018, dated 2023)
# Molecular target: BRD9 bromodomain (Homo sapiens (Human), UniProt Q9H8M2)
# Assay: BRD9 bromodomain TR-FRET competition binding assay
# Details: 3 nM Flag-BRD9, 3.75 nM biotinylated ligand, 90 minutes at room temperature
# Method: Cleaved His tag was removed by purification.
# A mixture of biotinylated-ligand and SureLight™ Allophycocyanin-Streptavidin (APC-SA, PerkinElmer AD0201) in 50 mM HEPES (pH 7.4), 50 mM NaCl, 1 mM TCEP (pH 7), 0.01% (v/v) Tween-20, 0.01% (w/v) bovine serum albumin was added to a white 384-well PerkinElmer Proxiplate Plus plate. DMSO or 3-fold serially diluted compounds were then added to the Proxiplate followed by addition of Flag-BRD9. After a 10 minute incubation at room temperature, Eu-W1024 anti-FLAG (PerkinElmer, AD0273) was added.
row,Compound,IC50
1,Cn1cc(C(=O)NCc2ccccc2)c2ccncc2c1=O [Compound B3],> 1000 nM
2,Cn1cc(C(=O)NCc2cccc3ccccc23)c2cn[nH]c2c1=O [Compound B4],> 1000 nM
3,Cn1cc(C(=O)NCc2ccccc2)c2cn[nH]c2c1=O [Compound B5],> 1000 nM
4,CCNC(=O)c1cn(C)c(=O)c2[nH]ncc12 [Compound B6],> 1000 nM
5,CN(Cc1ccccc1)C(=O)c1cn(C)c(=O)c2[nH]ncc12 [Compound B7],> 1000 nM
6,Cn1cc(C(=O)Nc2ccccc2)c2cn[nH]c2c1=O [Compound B8],> 1000 nM
7,CCn1cc(C(=O)NCc2ccccc2)c2cn[nH]c2c1=O [Compound B9],> 1000 nM
8,CCCn1cc(C(=O)NCc2ccccc2)c2cn[nH]c2c1=O [Compound B10],> 1000 nM
9,CCN(C)C(=O)c1cn(C)c(=O)c2[nH]ncc12 [Compound B11],> 1000 nM
10,CC(C)n1cc(C(=O)NCc2ccccc2)c2cn[nH]c2c1=O [Compound B12],> 1000 nM
11,O=C(NCc1ccccc1)c1cn(CC2CC2)c(=O)c2[nH]ncc12 [Compound B13],> 1000 nM
12,CNCc1ccc(-c2cn(C)c(=O)c3[nH]ccc23)cc1 [Compound B14],10 to 100 nM
13,C/C=C/Cn1cc(-c2ccc(CNC)c(C#N)c2)c2cc(C)[nH]c2c1=O [Compound B15],10 to 100 nM
14,"CC(=O)c1cc(-c2cccc3nccn23)c2cc(N3CCOCC3)ccn12 [Compound B16, 1-(1-[imidazo[1,2-a]pyridin-5-yl]-7-(morpholin-4-yl)indolizin-3-yl)ethan-1-one]",100 to 1000 nM
15,"CC(=O)c1cc(-c2cccc3nccn23)c2cc(N3CCN(C)CC3)ccn12 [Compound B17, 1-(1-[imidazo[1,2-a]pyridin-5-yl]-7-(4-methylpiperazin-1-yl)indolizin-3-yl)ethan-1-one]",100 to 1000 nM
16,"CNCc1c(OC)cc(-c2cn(C3CC3)c(=O)c3cnccc23)cc1OC [Compound B18, 2-cyclopropyl-4-[3,5-dimethoxy-4-[(methylamino)methyl]phenyl]-2,7-naphthyridin-1-one]",10 to 100 nM
17,"CC(=O)c1cc(-c2cccc3nccn23)c2cc(N3CCNCC3)ccn12 [Compound B19, 1-(1-[imidazo[1,2-a]pyridin-5-yl]-7-(piperazin-1-yl)indolizin-3-yl)ethan-1-one]",100 to 1000 nM
18,"COc1cc(-c2cn(C)c(=O)c3cnccc23)cc(OC)c1CN1CC(N)C1 [Compound B20, 4-[4-[(3-aminoazetidin-1-yl)methyl]-3,5-dimethoxyphenyl]-2-methyl-1,2-dihydro-2,7-naphthyridin-1-one]",< 10 nM
19,"COc1cc(-c2cn(C)c(=O)c3cnccc23)cc(OC)c1CN1CC(C(=O)O)C1 [Compound B21, 1-[[2,6-dimethoxy-4-(2-methyl-1-oxo-1,2-dihydro-2,7-naphthyridin-4-yl)phenyl]methyl]azetidine-3-carboxylic acid]",10 to 100 nM
20,"COc1cc(-c2cn(C3CC3)c(=O)c3cnccc23)cc(OC)c1CN(C)C [Compound B22, 2-cyclopropyl-4-[4-[(dimethylamino)methyl]-3,5-dimethoxyphenyl]-2,7-naphthyridin-1-one]",10 to 100 nM
21,COc1cc(C#N)ccc1S(=O)(=O)Nc1ccc2c(c1)cc(C)c(=O)n2C [Compound B26],> 1000 nM
22,"COc1cc(-c2cc(N)c(=O)n(C)c2)cc(OC)c1CN(C)C [Compound B28, 3-amino-5-(4-((dimethylamino)methyl)-3,5-dimethoxyphenyl)-1-methylpyridin-2(1H)-one]",10 to 100 nM

row,Compound,IC50
1,"COc1cc(-c2cc(NC(C)=O)c(=O)n(C)c2)cc(OC)c1CN(C)C [Compound B29, N-(5-[4-[(dimethylamino)methyl]-3,5-dimethoxyphenyl]-1-methyl-2-oxo-1,2-dihydropyridin-3-yl)acetamide]",100 to 1000 nM
2,"CCC(=O)Nc1cc(-c2cc(OC)c(CN(C)C)c(OC)c2)cn(C)c1=O [Compound B30, N-(5-[4-[(dimethylamino)methyl]-3,5-dimethoxyphenyl]-1-methyl-2-oxo-1,2-dihydropyridin-3-yl)propanamide]",100 to 1000 nM
3,"CCC(=O)Nc1c(C)c(-c2cc(OC)c(CN(C)C)c(OC)c2)cn(C)c1=O [Compound B31, N-(5-[4-[(dimethylamino)methyl]-3,5-dimethoxyphenyl]-1,4-dimethyl-2-oxo-1,2-dihydropyridin-3-yl)propanamide]",> 1000 nM
4,CCOC(=O)Nc1cc(-c2cc(OC)c(CN(C)C)c(OC)c2)cn(C)c1=O [Compound B32],10 to 100 nM
5,"COc1cc(-c2cn(C)c(=O)c3nccnc23)cc(OC)c1CN(C)C [Compound B33, 8-[4-[(dimethylamino)methyl]-3,5-dimethoxyphenyl]-6-methylpyrido[3,4-b]pyrazin-5-one]",100 to 1000 nM
6,"CNC(=O)C1CN(Cc2c(OC)cc(-c3cn(C)c(=O)c4cnccc34)cc2OC)C1 [Compound B34, 1-[[2,6-dimethoxy-4-(2-methyl-1-oxo-1,2-dihydro-2,7-naphthyridin-4-yl)phenyl]methyl]-N-methylazetidine-3-carboxamide formic acid]",< 10 nM
7,"CSc1cc(-c2cn(C)c(=O)c3cnccc23)ccc1CN(C)C [Compound B36, 4-[4-[(dimethylamino)methyl]-3-(methylsulfanyl)phenyl]-2-methyl-1,2-dihydro-2,7-naphthyridin-1-one]",10 to 100 nM
8,"CN(C)Cc1ccc(-c2cn(C)c(=O)c3cnccc23)cc1S(C)(=O)=O [Compound B37, 4-[4-[(dimethylamino)methyl]-3-methanesulfonylphenyl]-2-methyl-2,7-naphthyridin-1-one]",100 to 1000 nM
9,"COc1cc(-c2cn(C)c(=O)c3cnccc23)cc(OC)c1CN(C)S(C)(=O)=O [Compound B38, N-[[2,6-dimethoxy-4-(2-methyl-1-oxo-2,7-naphthyridin-4-yl)phenyl]methyl]-N-methylmethanesulfonamide]",< 10 nM
10,"COc1cc(-c2cn(C)c(=O)c3cnccc23)cc(OC)c1CN(C)S(=O)(=O)C1CC1 [Compound B39, N-[[2,6-dimethoxy-4-(2-methy-1-oxo-2,7-naphthyridin-4-yl)phenyl]methyl]-N-methyl cyclopropanesulfonamide]",< 10 nM
11,"COc1cc(-c2cn(C)c(=O)c3cnccc23)cc(OC)c1CN(C)S(=O)(=O)CC(C)C [Compound B40, N-[[2,6-dimethoxy-4-(2-methyl-1-oxo-2,7-naphthyridin-4-yl)phenyl]methyl]-N,2-dimethylpropane-1-sulfonamide]",< 10 nM
12,"COc1cc(-c2cn(C)c(=O)c3cnccc23)cc(OC)c1CN1CC(CC(=O)O)C1 [Compound B41, 2-(1-[[2,6-dimethoxy-4-(2-methyl-1-oxo-1,2-dihydro-2,7-naphthyridin-4-yl)phenyl]methyl]azetidin-3-yl)acetic acid formic acid]",10 to 100 nM
13,"CCOC(=O)Nc1c(C)c(-c2cc(OC)c(CN(C)C)c(OC)c2)cn(C)c1=O [Compound B42, ethyl N-(5-[4-[(dimethylamino)methyl]-3,5-dimethoxyphenyl]-1,4-dimethyl-2-oxo-1,2-dihydropyridin-3-yl)carbamate]",> 1000 nM
14,"COc1cc(-c2cn(C)c(=O)c3[nH]ncc23)cc(OC)c1CN(C)C [Compound B43, 4-(4-((dimethyllamino)methyl)-3,5-dimethoxyphenyl)-6-methyl-1,6-dihydro-7H-pyrazolo[3,4-c]pyridin-7-one]",< 10 nM
15,"COc1cc(-c2cn(C)c(=O)c3cnccc23)cc(OC)c1CN1CC(C(=O)NCCCCCCCCNc2ccccc2)C1 [Compound B44, 1-[[2,6-dimethoxy-4-(2-methyl-1-oxo-1,2-dihydro-2,7-naphthyridin-4-yl)phenyl]methyl]-N-[8-(phenylamino)octyl]azetidine-3-carboxamide]",< 10 nM
16,"COc1cc(-c2cn(C)c(=O)c3cnccc23)cc(OC)c1CN1CC[C@H]1C(=O)O [Compound B45, (2S)-1-[[2,6-dimethoxy-4-(2-methyl-1-oxo-2,7-naphthyridin-4-yl)phenyl]methyl] azetidine-2-carboxylic acid]",10 to 100 nM
17,"COc1cc(-c2cn(C)c(=O)c3[nH]cnc23)cc(OC)c1CN(C)C [Compound B47, 7-[4-[(dimethylamino)methyl]-3,5-dimethoxyphenyl]-5-methyl-3H-imidazo[4,5-c]pyridin-4-one formic acid]",10 to 100 nM
18,"COc1cc(-c2cc(C)c(=O)n(C)c2)cc(OC)c1CN1CC(C(=O)O)C1 [Compound B48, 1-[[4-(1,5-dimethyl-6-oxopyridin-3-yl)-2,6-dimethoxyphenyl]methyl]azetidine-3-carboxylic acid]",100 to 1000 nM
19,"COc1cc(-c2cn(C)c(=O)c3cnccc23)cc(OC)c1CN(C)S(=O)(=O)C(C)C [Compound B49, N-[[2,6-dimethoxy-4-(2-methyl-1-oxo-2,7-naphthyridin-4-yl)phenyl]methyl]-N-methyl propane-2-sulfonamide]",10 to 100 nM
20,"COc1cc(-c2cn(C)c(=O)c3cnncc23)cc(OC)c1CN(C)C [Compound B52, 8-[4-[(dimethylamino)methyl]-3,5-dimethoxyphenyl]-6-methyl-5H,6H-pyrido[3,4-d]pyridazin-5-one]",10 to 100 nM
21,"CNCc1c(OC)cc(-c2cn(C)c(=O)c3cnccc23)cc1OC [Compound B53, 4-[3,5-dimethoxy-4-[(methylamino)methyl]phenyl]-2-methyl-1,2-dihydro-2,7-naphthyridin-1-one]",10 to 100 nM
22,"COc1cc(-c2cn(C)c(=O)c3cnccc23)cc(SC)c1CN(C)C [Compound B54, 4-[4-[(dimethylamino)methyl]-3-methoxy-5-(methylsulfanyl)phenyl]-2-methyl-1,2-dihydro-2,7-naphthyridin-1-one]",< 10 nM
